{
  "source": "patent US20070128217A1",
  "about": "(priority 2003, published 2007)",
  "key": {"[1]": {"tested_on": "control sera (pooled serum of ten healthy LUMC hospital workers; commercial negative donor pooled serum from the Dutch bloodbank)", "assay_type": "binding, human", "set-up": "Binding of Control serum LUMC to linear peptides / Binding of Control serum Blood-bank to linear peptides / Binding of Control serum LUMC to looped peptides / Binding of Control Serum Blood-Bank to Looped peptides / Binding of Control serum LUMC to linear peptides of the protein M of SARS-CoV Urbani / Binding of Control serum Blood-bank to linear peptides of the protein M of SARS-CoV Urbani / Binding of Control serum LUMC to looped peptides of the protein M of SARS-CoV Urbani / Binding of Control Serum Blood-Bank to Looped peptides of the protein M of SARS-CoV Urbani: unit not given here"}, "[2]": {"tested_on": "rabbit serum obtained by immunizing a rabbit with the SARS-CoV strain Frankfurt 1", "assay_type": "binding", "set-up": "Binding of a rabbit serum to linear peptides / Binding of a rabbit serum to looped peptides / Rabbit serum linear peptides / Rabbit serum looped peptides / Binding of a rabbit serum to linear peptides of protein N of SARS-CoV Urbani (Rabbit serum linear peptides) / Binding of a rabbit serum to looped/cyclic peptides of protein N of SARS-CoV Urbani (Rabbit serum looped peptides): unit not given here"}, "[3]": {"tested_on": "antibodies in sera from SARS patients (sera 1a, 1b, 2, 6, 37, 62, London, SARS-yellow, SARS-green)", "assay_type": "binding, human", "set-up": "Binding of serum 6 to linear peptides of protein X1 of SARS-CoV Urbani / Binding of serum 37 to linear peptides of protein X1 of SARS-CoV Urbani / Binding of serum 6 to looped/cyclic peptide (PEPSCAN-ELISA) / Binding of serum 37 to looped/cyclic peptide (PEPSCAN-ELISA) / Binding of serum 37 to looped/cyclic peptides of protein X1 of SARS-CoV Urbani / Binding of serum 6 to linear peptides of protein X2 / Binding of serum 37 to linear peptides of protein X2 / Binding of serum 37 to looped/cyclic peptides of protein X2 of SARS-CoV Urbani / Binding of serum 6 to linear peptides of protein M of SARS-CoV Urbani / Binding of serum 37 to linear peptides of protein M of SARS-CoV Urbani / Binding of serum 6 to looped/cyclic peptides of protein M of SARS-CoV Urbani / Binding of serum 37 to looped/cyclic peptides of protein M of SARS-CoV Urbani / Binding of serum 6 to linear peptides of protein X3 of SARS-CoV Urbani / Binding of serum 37 to linear peptides of protein X3 of SARS-CoV Urbani / Binding of serum 37 to looped/cyclic peptides of protein X3 of SARS-CoV Urbani / Binding of serum 6 to linear peptides of protein X4 of SARS-CoV Urbani / Binding of serum 37 to linear peptides of protein X4 of SARS-CoV Urbani / Binding of serum 37 to looped/cyclic peptides of protein X4 of SARS-CoV Urbani / Binding of serum 6 to linear peptides of protein X5 of SARS-CoV Urbani / Binding of serum 37 to linear peptides of protein X5 of SARS-CoV Urbani / Binding of serum 37 to looped/cyclic peptides of protein X5 of SARS-CoV Urbani / Binding of serum 6 to linear peptides of protein N of SARS-CoV Urbani / Binding of serum 37 to linear peptides of protein N of SARS-CoV Urbani / Binding of serum 6 to linear peptide (PEPSCAN-ELISA) / Binding of serum 1a to looped/cyclic peptides of protein N of SARS-CoV Urbani / Binding of serum 1b to looped/cyclic peptides of protein N of SARS-CoV Urbani / Binding of serum 2 to looped/cyclic peptides of protein N of SARS-CoV Urbani / Binding of serum 6 to looped/cyclic peptides of protein N of SARS-CoV Urbani / Binding of serum 37 to looped/cyclic peptides of protein N of SARS-CoV Urbani / Binding of serum 62 to looped/cyclic peptides of protein N of SARS-CoV Urbani / Binding of serum London to looped/cyclic peptides of protein N of SARS-CoV Urbani / Binding of serum SARS-green to looped/cyclic peptides of protein N of SARS-CoV Urbani: unit not given here"}},
  "data": [
    {"sequence": "KHKKVSTNLCTHSFR", "values": [
      {"measurement": "Binding of Control Serum Blood-Bank to Looped peptides", "setting": "[1]", "value": 0.5},
      {"measurement": "Binding of Control serum Blood-bank to linear peptides", "setting": "[1]", "value": 0.9},
      {"measurement": "Binding of Control serum LUMC to linear peptides", "setting": "[1]", "value": 0.6},
      {"measurement": "Binding of Control serum LUMC to looped peptides", "setting": "[1]", "value": 0.7},
      {"measurement": "Binding of a rabbit serum to linear peptides", "setting": "[2]", "value": 0.4},
      {"measurement": "Binding of a rabbit serum to looped peptides", "setting": "[2]", "value": 0.0},
      {"measurement": "Binding of serum 1a to looped/cyclic peptides of protein X2 of SARS-CoV Urbani", "setting": "[3]", "value": 0.5},
      {"measurement": "Binding of serum 1b to looped/cyclic peptides of protein X2 of SARS-CoV Urbani", "setting": "[3]", "value": 0.0},
      {"measurement": "Binding of serum 2 to looped/cyclic peptides of protein X2 of SARS-CoV Urbani", "setting": "[3]", "value": 0.7},
      {"measurement": "Binding of serum 6 to looped/cyclic peptides of protein X2 of SARS-CoV Urbani", "setting": "[3]", "value": 0.4},
      {"measurement": "Binding of serum 37 to looped/cyclic peptides of protein X2 of SARS-CoV Urbani", "setting": "[3]", "value": 0.2},
      {"measurement": "Binding of serum 62 to looped/cyclic peptides of protein X2 of SARS-CoV Urbani", "setting": "[3]", "value": 0.4},
      {"measurement": "Binding of serum London to looped/cyclic peptides of protein X2 of SARS-CoV Urbani", "setting": "[3]", "value": 0.1},
      {"measurement": "Binding of serum SARS-green to looped/cyclic peptides of protein X2 of SARS-CoV Urbani", "setting": "[3]", "value": 0.3},
      {"measurement": "Binding of serum SARS-yellow to looped/cyclic peptides of protein X2 of SARS-CoV Urbani", "setting": "[3]", "value": 0.1},
      {"measurement": "Recognition of the peptide by sera of SARS-CoV infected individuals, and form (linear, looped/cyclic) in which it is recognized", "setting": "[3]", "value": "recognized in linear form"}
    ]},
    {"sequence": "EQWNLVIGFLFLAWI", "values": [
      {"measurement": "Binding of Control Serum Blood-Bank to Looped peptides of the protein M of SARS-CoV Urbani", "setting": "[1]", "value": 0.6},
      {"measurement": "Binding of Control serum Blood-bank to linear peptides of the protein M of SARS-CoV Urbani", "setting": "[1]", "value": 0.5},
      {"measurement": "Binding of Control serum LUMC to linear peptides of the protein M of SARS-CoV Urbani", "setting": "[1]", "value": 0.4},
      {"measurement": "Binding of Control serum LUMC to looped peptides of the protein M of SARS-CoV Urbani", "setting": "[1]", "value": 0.7},
      {"measurement": "Rabbit serum linear peptides", "setting": "[2]", "value": 0.2},
      {"measurement": "Rabbit serum looped peptides", "setting": "[2]", "value": 0.4},
      {"measurement": "Binding of serum 1a to linear peptides of protein M of SARS-CoV Urbani", "setting": "[3]", "value": 0.7},
      {"measurement": "Binding of serum 1a to looped/cyclic peptides of protein M of SARS-CoV Urbani", "setting": "[3]", "value": 0.7},
      {"measurement": "Binding of serum 1b to linear peptides of protein M of SARS-CoV Urbani", "setting": "[3]", "value": 0.5},
      {"measurement": "Binding of serum 1b to looped/cyclic peptides of protein M of SARS-CoV Urbani", "setting": "[3]", "value": 0.6},
      {"measurement": "Binding of serum 2 to linear peptides of protein M of SARS-CoV Urbani", "setting": "[3]", "value": 0.5},
      {"measurement": "Binding of serum 2 to looped/cyclic peptides of protein M of SARS-CoV Urbani", "setting": "[3]", "value": 0.6},
      {"measurement": "Binding of serum 6 to linear peptides of protein M of SARS-CoV Urbani", "setting": "[3]", "value": 0.5},
      {"measurement": "Binding of serum 6 to looped/cyclic peptides of protein M of SARS-CoV Urbani", "setting": "[3]", "value": 0.4},
      {"measurement": "Binding of serum 37 to linear peptides of protein M of SARS-CoV Urbani", "setting": "[3]", "value": 0.4},
      {"measurement": "Binding of serum 37 to looped/cyclic peptides of protein M of SARS-CoV Urbani", "setting": "[3]", "value": 0.7},
      {"measurement": "Binding of serum 62 to linear peptides of protein M of SARS-CoV Urbani", "setting": "[3]", "value": 0.5},
      {"measurement": "Binding of serum 62 to looped/cyclic peptides of protein M of SARS-CoV Urbani", "setting": "[3]", "value": 0.7},
      {"measurement": "Binding of serum London to linear peptides of protein M of SARS-CoV Urbani", "setting": "[3]", "value": 0.4},
      {"measurement": "Binding of serum London to looped/cyclic peptides of protein M of SARS-CoV Urbani", "setting": "[3]", "value": 0.2},
      {"measurement": "Binding of serum SARS-green to linear peptides of protein M of SARS-CoV Urbani", "setting": "[3]", "value": 0.4},
      {"measurement": "Binding of serum SARS-green to looped/cyclic peptides of protein M of SARS-CoV Urbani", "setting": "[3]", "value": 0.4},
      {"measurement": "Binding of serum SARS-yellow to linear peptides of protein M of SARS-CoV Urbani", "setting": "[3]", "value": 0.3},
      {"measurement": "Binding of serum SARS-yellow to looped/cyclic peptides of protein M of SARS-CoV Urbani", "setting": "[3]", "value": 0.6}
    ]},
    {"sequence": "ELLIQQWIQFMMSRR", "values": [
      {"measurement": "Binding of Control Serum Blood-Bank to Looped peptides", "setting": "[1]", "value": 0.6},
      {"measurement": "Binding of Control serum Blood-bank to linear peptides", "setting": "[1]", "value": 0.5},
      {"measurement": "Binding of Control serum LUMC to linear peptides", "setting": "[1]", "value": 0.4},
      {"measurement": "Binding of Control serum LUMC to looped peptides", "setting": "[1]", "value": 0.5},
      {"measurement": "Binding of a rabbit serum to linear peptides", "setting": "[2]", "value": 0.4},
      {"measurement": "Binding of a rabbit serum to looped peptides", "setting": "[2]", "value": 0.4},
      {"measurement": "Binding of serum 1a to linear peptides of protein X2", "setting": "[3]", "value": 0.7},
      {"measurement": "Binding of serum 1a to looped/cyclic peptides of protein X2 of SARS-CoV Urbani", "setting": "[3]", "value": 0.5},
      {"measurement": "Binding of serum 1b to linear peptides of protein X2", "setting": "[3]", "value": 0.5},
      {"measurement": "Binding of serum 1b to looped/cyclic peptides of protein X2 of SARS-CoV Urbani", "setting": "[3]", "value": 0.4},
      {"measurement": "Binding of serum 2 to linear peptides of protein X2", "setting": "[3]", "value": 0.4},
      {"measurement": "Binding of serum 2 to looped/cyclic peptides of protein X2 of SARS-CoV Urbani", "setting": "[3]", "value": 0.5},
      {"measurement": "Binding of serum 6 to linear peptides of protein X2", "setting": "[3]", "value": 0.3},
      {"measurement": "Binding of serum 6 to looped/cyclic peptides of protein X2 of SARS-CoV Urbani", "setting": "[3]", "value": 0.3},
      {"measurement": "Binding of serum 37 to linear peptides of protein X2", "setting": "[3]", "value": 0.6},
      {"measurement": "Binding of serum 37 to looped/cyclic peptides of protein X2 of SARS-CoV Urbani", "setting": "[3]", "value": 0.5},
      {"measurement": "Binding of serum 62 to linear peptides of protein X2", "setting": "[3]", "value": 0.6},
      {"measurement": "Binding of serum 62 to looped/cyclic peptides of protein X2 of SARS-CoV Urbani", "setting": "[3]", "value": 0.6},
      {"measurement": "Binding of serum London to linear peptides of protein X2", "setting": "[3]", "value": 0.4},
      {"measurement": "Binding of serum London to looped/cyclic peptides of protein X2 of SARS-CoV Urbani", "setting": "[3]", "value": 0.2},
      {"measurement": "Binding of serum SARS-green to linear peptides of protein X2", "setting": "[3]", "value": 0.6},
      {"measurement": "Binding of serum SARS-green to looped/cyclic peptides of protein X2 of SARS-CoV Urbani", "setting": "[3]", "value": 0.4},
      {"measurement": "Binding of serum SARS-yellow to linear peptides of protein X2", "setting": "[3]", "value": 0.8},
      {"measurement": "Binding of serum SARS-yellow to looped/cyclic peptides of protein X2 of SARS-CoV Urbani", "setting": "[3]", "value": 0.4}
    ]}
  ]
}
